Converted amounts (≈) assume the structure as drawn.
Tests used:
NCI-H522 = experiment: Growth inhibition of human NCI-H522 cells at 10^-5 M incubated for 48 hrs by sulforhodamine B assay; type: functional; conditions: NCI-H522, 48 h, read-out: GI
BT-549 = experiment: Growth inhibition of human BT549 cells at 10^-5 M incubated for 48 hrs by sulforhodamine B assay; type: functional; conditions: BT-549, 48 h, read-out: GI
SF-268 = experiment: Growth inhibition of human SF268 cells at 10^-5 M incubated for 48 hrs by sulforhodamine B assay; type: functional; conditions: SF-268, 48 h, read-out: GI
OVCAR-3 = experiment: Growth inhibition of human OVCAR3 cells at 10^-5 M incubated for 48 hrs by sulforhodamine B assay; type: functional; conditions: OVCAR-3, 48 h, read-out: GI
MDA-MB-468 = experiment: Growth inhibition of human MDA-MB-468 cells at 10^-5 M incubated for 48 hrs by sulforhodamine B assay; type: functional; conditions: MDA-MB-468, 48 h, read-out: GI
SNB-19 = experiment: Growth inhibition of human SNB19 cells at 10^-5 M incubated for 48 hrs by sulforhodamine B assay; type: functional; conditions: SNB-19, 48 h, read-out: GI
HT-29 = experiment: Growth inhibition of human HT-29 cells at 10^-5 M incubated for 48 hrs by sulforhodamine B assay; type: functional; conditions: HT-29, 48 h, read-out: GI
SN12C = experiment: Growth inhibition of human SN12C cells at 10^-5 M incubated for 48 hrs by sulforhodamine B assay; type: functional; conditions: read-out: GI
OVCAR-4 = experiment: Growth inhibition of human OVCAR4 cells at 10^-5 M incubated for 48 hrs by sulforhodamine B assay; type: functional; conditions: OVCAR-4, 48 h, read-out: GI
ACHN = experiment: Growth inhibition of human ACHN cells at 10^-5 M incubated for 48 hrs by sulforhodamine B assay; type: functional; conditions: read-out: GI
CCRF-CEM = experiment: Growth inhibition of human CCRF-CEM cells at 10^-5 M incubated for 48 hrs by sulforhodamine B assay; type: functional; conditions: read-out: GI
SK-MEL-2 = experiment: Growth inhibition of human SK-MEL-2 cells at 10^-5 M incubated for 48 hrs by sulforhodamine B assay; type: functional; conditions: SK-MEL-2, 48 h, read-out: GI
Malme-3M = experiment: Growth inhibition of human MALME-3M cells at 10^-5 M incubated for 48 hrs by sulforhodamine B assay; type: functional; conditions: read-out: GI
PC-3 = experiment: Growth inhibition of human PC3 cells at 10^-5 M incubated for 48 hrs by sulforhodamine B assay; type: functional; conditions: PC-3, 48 h, read-out: GI
NCI-H23 = experiment: Growth inhibition of human NCI-H23 cells at 10^-5 M incubated for 48 hrs by sulforhodamine B assay; type: functional; conditions: NCI-H23, 48 h, read-out: GI
UO-31 [1] = experiment: Growth inhibition of human UO31 cells at 10^-5 M incubated for 48 hrs by sulforhodamine B assay; type: functional; conditions: UO-31, 48 h, read-out: GI
NCI/ADR-RES = experiment: Growth inhibition of human NCI/ADR-RES cells at 10^-5 M incubated for 48 hrs by sulforhodamine B assay; type: functional; conditions: read-out: GI
K562 = experiment: Growth inhibition of human K562 cells at 10^-5 M incubated for 48 hrs by sulforhodamine B assay; type: functional; conditions: K562, 48 h, read-out: GI
NCI-H322M = experiment: Growth inhibition of human NCI-H322M cells at 10^-5 M incubated for 48 hrs by sulforhodamine B assay; type: functional; conditions: read-out: GI
[2] = target: T1, NAD-dependent protein deacetylase sirtuin-2 (Homo sapiens, UniProt Q8IXJ6); experiment: Inhibition of SIRT2 (unknown origin) using fluorogenic substrate assessed as deacetylase activity incubated for 45 mins by fluorescence assay
T1 sequence (Q8IXJ6 whole entry): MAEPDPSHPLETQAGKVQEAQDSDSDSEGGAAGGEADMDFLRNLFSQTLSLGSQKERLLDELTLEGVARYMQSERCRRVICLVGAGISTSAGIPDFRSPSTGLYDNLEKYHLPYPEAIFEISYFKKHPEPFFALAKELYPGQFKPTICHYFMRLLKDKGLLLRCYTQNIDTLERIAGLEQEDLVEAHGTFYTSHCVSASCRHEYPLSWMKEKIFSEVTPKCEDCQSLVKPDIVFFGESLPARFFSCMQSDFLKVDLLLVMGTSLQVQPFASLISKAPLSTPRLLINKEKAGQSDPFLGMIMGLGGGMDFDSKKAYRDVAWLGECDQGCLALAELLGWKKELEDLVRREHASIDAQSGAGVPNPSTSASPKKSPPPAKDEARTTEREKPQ

A498 = experiment: Growth inhibition of human A498 cells at 10^-5 M incubated for 48 hrs by sulforhodamine B assay; type: functional; conditions: A498, 48 h, read-out: GI
MCF7 [3] = experiment: Growth inhibition of human MCF7 cells at 10^-5 M incubated for 48 hrs by sulforhodamine B assay; type: functional; conditions: MCF7, 48 h, read-out: GI
UO-31 [4] = experiment: Cytotoxicity against human UO31 cells assessed as reduction in cell viability after 24 hrs by MTT assay; type: functional, cell-based; conditions: UO-31, 24 h
MCF7 [5] = experiment: Cytotoxicity against human MCF7 cells assessed as reduction in cell viability after 24 hrs by MTT assay; type: functional, cell-based; conditions: MCF7, 24 h

| SMILES | inhibition of growth at 10 µM (NCI-H522) [%] | inhibition of growth at 10 µM (BT-549) [%] | inhibition of growth at 10 µM (SF-268) [%] | inhibition of growth at 10 µM (OVCAR-3) [%] | inhibition of growth at 10 µM (MDA-MB-468) [%] | inhibition of growth at 10 µM (SNB-19) [%] | inhibition of growth at 10 µM (HT-29) [%] | inhibition of growth at 10 µM (SN12C) [%] | inhibition of growth at 10 µM (OVCAR-4) [%] | inhibition of growth at 10 µM (ACHN) [%] | inhibition of growth at 10 µM (CCRF-CEM) [%] | inhibition of growth at 10 µM (SK-MEL-2) [%] | inhibition of growth at 10 µM (Malme-3M) [%] | inhibition of growth at 10 µM (PC-3) [%] | inhibition of growth at 10 µM (NCI-H23) [%] | inhibition of growth at 10 µM (UO-31 [1]) [%] | inhibition of growth at 10 µM (NCI/ADR-RES) [%] | inhibition of growth at 10 µM (K562) [%] | inhibition of growth at 10 µM (NCI-H322M) [%] | inhibition of growth at 10 µM (A498) [%] | also measured |
| --- | --- | --- | --- | --- | --- | --- | --- | --- | --- | --- | --- | --- | --- | --- | --- | --- | --- | --- | --- | --- | --- |
| O=[N+]([O-])c1cccc(C2c3sc4ccc(Cl)cc4c3N=C3NN=C(c4cccc(F)c4)N32)c1 (configuration not stated) | 7.14 | -8.29 | 2.25 | -1.54 | -20.8 | -0.64 | -7.53 | 3.42 | 0.57 | 11.4 | -19.6 | -11.2 | -3.66 | 7.25 | 10.1 | 41.4 | -2.63 | 6.99 | 2.83 | 0.64 | IC50 [2]: 8.47 µM; inhibition of growth at 10 µM (MCF7 [3]): 24.4%; IC50 (UO-31 [4]): 10.5 µg/mL (≈ 21.9 µM); IC50 (MCF7 [5]): 0.23 µg/mL (≈ 0.481 µM) |
| S=C1Nc2c(sc3ccc(Cl)cc23)C(c2ccc3ccccc3c2)N1 (configuration not stated) | 17.7 | -9.88 | 10.3 | 3.25 | 4.47 | 7.85 | 0.32 | 9.45 | 11 | 12.4 | -3.09 | 9.98 | 18.4 | 14.5 | 15.2 | -25.5 | 4.45 | 4 | 13.9 | 14.9 | inhibition of growth at 10 µM (MCF7 [3]): -6.73%; IC50 (UO-31 [4]): 7.91 µg/mL (≈ 20.8 µM); IC50 (MCF7 [5]): 19.6 µg/mL (≈ 51.6 µM) |
| Cc1cc(C)n(C2=Nc3c(sc4ccc(Cl)cc34)C(c3cccc([N+](=O)[O-])c3)N2)n1 (configuration not stated) | 10.8 | -17.8 | 1.15 | -2.22 | 8.16 | 3.18 | -2.6 | 5.84 | -2.96 | 11.2 | -7.22 | -5.1 | -2.21 | 18.6 | 23 | 43.7 | -2.52 | 4.14 | 0.71 | 1.15 | IC50 [2]: 19.3 µM; inhibition of growth at 10 µM (MCF7 [3]): 20.6%; IC50 (UO-31 [4]): 9.62 µg/mL (≈ 22 µM); IC50 (MCF7 [5]): 1.67 µg/mL (≈ 3.81 µM) |
| O=[N+]([O-])c1cccc(C2c3sc4ccc(Cl)cc4c3N=C3NN=CN32)c1 (configuration not stated) | 1.55 | 16.9 | 4.21 | -0.5 | -15.5 | 1.87 | -15.1 | -37.5 | 0.93 | 22 | -13.4 | -3.53 | -2.71 | -9.08 | 17.7 | 23 | 6.44 | -4.99 | 5.8 | 22.4 | IC50 [2]: 6.64 µM; inhibition of growth at 10 µM (MCF7 [3]): 16.9%; IC50 (UO-31 [4]): 26.2 µg/mL (≈ 68.4 µM); IC50 (MCF7 [5]): 9.8 µg/mL (≈ 25.5 µM) |
| NNC1=Nc2c(sc3ccc(Cl)cc23)C(c2cccc([N+](=O)[O-])c2)N1 (configuration not stated) | 7.13 | -17.8 | 1.93 | -1.38 | 7.99 | -1.03 | -13.5 | 1.02 | 1.81 | 6.37 | -19.8 | -8.15 | -5 | 15.2 | 9.49 | 42.9 | -3.64 | 13.3 | 4.45 | -27.2 | inhibition of growth at 10 µM (MCF7 [3]): 18.1%; IC50 (UO-31 [4]): 18.3 µg/mL (≈ 49.1 µM); IC50 (MCF7 [5]): 16.4 µg/mL (≈ 43.7 µM) |
| N#Cc1cnn(C2=Nc3c(sc4ccc(Cl)cc34)C(c3cccc([N+](=O)[O-])c3)N2)c1N (configuration not stated) | 4.1 | -5.52 | 5.36 | -7.11 | 3.7 | -2.52 | -17.9 | -7.06 | -1.38 | 15.2 | -11.9 | -5.14 | -6.04 | 11 | 19.8 | 41.2 | 5.59 | 1.28 | 6.34 | -6.43 | inhibition of growth at 10 µM (MCF7 [3]): 29.9%; IC50 (UO-31 [4]): 32.5 µg/mL (≈ 72.2 µM); IC50 (MCF7 [5]): 11.9 µg/mL (≈ 26.5 µM) |
| CCOC(=O)CSC1=Nc2c(sc3ccc(Cl)cc23)C(c2cccc([N+](=O)[O-])c2)N1 (configuration not stated) | 4.34 | -12.4 | 3.8 | 0.63 | -24.4 | -0.3 | -15.9 | 2.9 | -4.53 | 6.61 | -8.55 | -6.23 | 5.55 | 9.33 | 9.36 | 44.7 | 1.65 | 10.3 | 7.77 | 6.9 | inhibition of growth at 10 µM (MCF7 [3]): 20.1%; IC50 (UO-31 [4]): 11.8 µg/mL (≈ 25.6 µM); IC50 (MCF7 [5]): 22.1 µg/mL (≈ 47.9 µM) |
| O=C1/C(=C\c2ccc3ccccc3c2)Sc2ccc(Cl)cc21 | 11.7 | -9.47 | 3.36 | -1.8 | -6.42 | -8.84 | -1.78 | 6.38 | 12.3 | 8.79 | -2.13 | -0.66 | 8.78 | 11.6 | 10.4 | -5.61 | 2.51 | 2.65 | 10.3 | 0.99 | inhibition of growth at 10 µM (MCF7 [3]): -10.2%; IC50 (UO-31 [4]): 39.9 µg/mL (≈ 124 µM); IC50 (MCF7 [5]): 43.9 µg/mL (≈ 136 µM) |
